Data set [1] deals with Mycobacterium leprae. The experiment in a line: Anti-leprotic activity against Mycobacterium leprae infected in CBA mouse assessed as number of Mycobacterium leprae in paw pads at 10 mg/kg administrated 5 times a week and measured 7.5 months post infection (reference value: 3.91 +/- 0.33 10^5). The class given is functional.
In data set [2] the test system is Mycobacterium leprae. The experiment in a line: Anti-leprotic activity against Mycobacterium leprae infected in CBA mouse assessed as number of Mycobacterium leprae in paw pads at 30 mg/kg administrated 5 times a week and measured 7.5 months post infection (reference value: 3.91 +/- 0.33 10^5). It counts as functional.
Data set [3] concerns Staphylococcus aureus. The data set is described as follows: Antimicrobial activity against Staphylococcus aureus assessed as zone of inhibition incubated for 20 hrs by agar well diffusion assay. It counts as functional.
The subject of data set [4] is Escherichia coli. The experiment in a line: Antimicrobial activity against Escherichia coli assessed as zone of inhibition incubated for 20 hrs by agar well diffusion assay. It counts as functional.
For data set [5], the system named is Mycobacterium leprae. The data set is described as follows: Inhibition of PGL1 synthesis in Mycobacterium leprae infected Swiss Webster mouse macrophages assessed as decrease in [U-14C]PA incorporation at 20 uM preincubated for 4 days post infection followed by [U-14C]PA addition and measured after 7 days by liquid scintillation counter analysis relative to control. The class given is functional.

Data set [6] has as its system Mycobacterium leprae. The experiment in a line: Inhibition of PGL1 synthesis in Mycobacterium leprae infected Swiss Webster mouse macrophages assessed as decrease in [U-14C]PA incorporation at 2 uM preincubated for 4 days post infection followed by [U-14C]PA addition and measured after 7 days by liquid scintillation counter analysis relative to control. The class given is functional.

Data set [7] relates to Monocyte. The data set is described as follows: Antiinflammatory activity in human monocytes assessed as inhibition of LPS-induced TNFaplha production at 25 uM preincubated for 15 mins followed by LPS addition and measured after 4 hrs by ELISA relative to control. It counts as functional.
Data set [8] concerns Monocyte. The experiment in a line: Antiinflammatory activity in human monocytes assessed as inhibition of LPS-induced TNFaplha production at 50 uM preincubated for 15 mins followed by LPS addition and measured after 4 hrs by ELISA relative to control. The class given is functional.
Data set [9] in a line: Cytotoxicity against LPS-induced human monocytes assessed as cell viability at 50 uM by tryphan blue staining based assay relative to control. As to conditions: read-out: Activity. Details: species or system Monocyte.
Data set [10] has as its system Mycobacterium leprae. The experiment in a line: Inhibition of PGL1 synthesis in Mycobacterium leprae infected Swiss Webster mouse macrophages assessed as decrease in [U-14C]PA incorporation at 0.2 uM preincubated for 4 days post infection followed by [U-14C]PA addition and measured after 7 days by liquid scintillation counter analysis relative to control. It counts as functional.

Data set [11] is described as follows: Selectivity index, ratio of IC50 for African green monkey Vero cells to MIC for antitubercular activity against Mycobacterium tuberculosis H37Rv. It counts as toxicity. As to conditions: Vero cells, read-out: Selectivity Index.
Data set [12] deals with Mycobacterium tuberculosis. The experiment in a line: Antitubercular activity against Mycobacterium tuberculosis H37Rv ATCC 27294 assessed as growth inhibition at 6.25 ug/ml by microplate alamar blue assay relative to control. The class given is functional.
Data set [13] has as its system Mycobacterium tuberculosis. The experiment in a line: Antitubercular activity against Mycobacterium tuberculosis H37Rv ATCC 27294 assessed as inhibition of [3H]-thymidine incorporation relative to control. It counts as functional.
Data set [14] deals with Monocyte. The experiment in a line: Antiinflammatory activity in human monocytes assessed as inhibition of LPS-induced TNFaplha production at 5 uM preincubated for 15 mins followed by LPS addition and measured after 4 hrs by ELISA relative to control. It counts as functional.
Data set [15] has as its system Mycolicibacterium vaccae. The experiment in a line: Antimicrobial activity against Mycobacterium vaccae incubated for 24 hrs by broth microdilution assay. The class given is functional.
The subject of data set [16] is Mycolicibacterium fortuitum. The experiment in a line: Antimicrobial activity against Mycobacterium fortuitum incubated for 24 hrs by broth microdilution assay. The class given is functional.
The subject of data set [17] is Mycolicibacterium smegmatis. The data set is described as follows: Antimicrobial activity against Mycobacterium smegmatis incubated for 24 hrs by broth microdilution assay. It counts as functional.
Data set [18] relates to Mycobacterium leprae. The data set is described as follows: Anti-leprotic activity against Mycobacterium leprae infected in 538 CBA mouse assessed as number of Mycobacterium leprae in paw pads at 2 mg/kg administrated via gastric tube 5 times a week and measured 7 months post infection. It counts as functional.
The test system of data set [19] is Mycobacterium leprae. The experiment in a line: Anti-leprotic activity against Mycobacterium leprae infected in 538 CBA mouse assessed as number of Mycobacterium leprae in paw pads at 6 mg/kg administrated via gastric tube 5 times a week and measured 7 months post infection. It counts as functional.
Data set [20] relates to Mycolicibacterium aurum. The experiment in a line: Antimicrobial activity against Mycobacterium aurum incubated for 24 hrs by broth microdilution assay. The class given is functional.
For data set [21], the system named is Mycobacterium leprae. The data set is described as follows: Anti-leprotic activity against Mycobacterium leprae infected in albino mouse assessed survival against infection at 400 mg/kg, sc administered 58 days post-infection and subsequent compound dosing at 200 mg/kg at 0.5, 1 or 2 months interval. The class given is functional.
The nature of data set [22]: Half life in rat at 400 mg/kg, sc administered as single dose. The class given is ADME, organism-based. As to conditions: in vivo.
Data set [23] deals with Plasmodium berghei. The experiment in a line: Antimalarial activity against Plasmodium berghei infected in albino mouse assessed survival against infection at 400 mg/kg, sc administered as single dose. The class given is functional.
The nature of data set [24]: Drug concentration in rat blood at 400 mg/kg, sc administered as single dose. The class given is ADME, organism-based. The settings on record: in vivo.
Data set [25] has as its system Rattus norvegicus. The experiment in a line: Effect of metallo-protein haemoglobin in rat assessed as peak methemoglobin level at 400 mg/kg, sc administered as single dose. It counts as ADME, organism-based. As to conditions: in vivo.
A short description of data set [26]: Drug excretion in rat urine at 400 mg/kg, sc administered as single dose measured after 30 days. It counts as ADME, organism-based. The settings on record: read-out: Drug excretion.
For data set [27], the system named is Mycolicibacterium smegmatis. The experiment in a line: Antimicrobial activity against Mycobacterium smegmatis incubated for 30 to 32 hrs under shaking condition. It counts as functional.
In data set [28] the test system is Mycolicibacterium smegmatis. The data set is described as follows: Antimicrobial activity against Mycobacterium smegmatis incubated for 30 to 32 hrs under shaking condition relative to control. The class given is functional.
The subject of data set [29] is Mycolicibacterium smegmatis. The experiment in a line: Antimycobacterial activity against DDS resistant Mycobacterium smegmatis ATCC 607 […]. It counts as functional.
In data set [30] the test system is Mycobacterium leprae. The experiment in a line: Anti-leprotic activity against Mycobacterium leprae infected in BALB/c mouse assessed as time delay in bacterial multiplication in footpad at 0.01 g/100g of diet administered via feed starting 60 or 75 day post infection up to 90 days by Shepard's kinetic method. It counts as functional.
Data set [31] concerns Mycolicibacterium smegmatis. The data set is described as follows: Antimycobacterial activity against DDS sensitive Mycobacterium smegmatis ATCC 607 […]. It counts as functional.

In brackets after ≈: the same amount, converted by molar mass.

As for `CN(C)C(=S)Sc1c([N+](=O)[O-])cc([N+](=O)[O-])nc1C#N`, the Activity in data set [1] was 2.13 ×10⁵ No_unit; in data set [2], 1.83 ×10⁵ No_unit.
For the molecule `C[C@@H](O)[C@H]1C(=O)N2C(C(=O)O)=C(SCCNC=N)C[C@H]12` [IMIPENEM ANHYDROUS], the “diameter of the inhibition zone (DIZ)” value in [3] came to 31 mm; in [4], 35 mm.
On to `CCc1cc(C(N)=S)ccn1` [ETHIONAMIDE], for which the inhibition at 20 µM in [5] amounted to 97%. In data set [6], the inhibition at 2 µM came to 77%.
As to `O=C1c2cccc([N+](=O)[O-])c2C(=O)N1c1cn(-c2ccccc2)c(=O)[nH]c1=O`, the inhibition at 25 µM in data set [7] was under 10%. Also, in data set [8], the inhibition at 50 µM was under 10%. The viability at 50 µM in [9] came to 90%.
For the molecule `Clc1ccc(Nc2cc3nc4ccccc4n(-c4ccc(Cl)cc4)c-3c/c2=N/CCCN2CCCC2)cc1`, the inhibition at 2 µM in [6] is 98%. Further, the inhibition at 0.2 µM in [10] worked out at 26%.
Consider `c1ccc(Cn2cnc3c(-c4ccco4)ncnc32)cc1` [9-BENZYL-6-(FURAN-2-YL)-9H-PURINE], for which, in data set [11], the selectivity ratio was found to be 2.7. Moreover, the inhibition at 6.25 µg/mL in data set [12] was over 90%. Further, in data set [13], the “inhibition (INH)” value is 59%.
With `O=C1c2ccccc2C(=O)N1c1cnc(O)nc1O`, the inhibition at 25 µM in [7] was under 10%. The inhibition at 50 µM in [8] was under 10%. The inhibition at 5 µM in [14] was under 10%. The viability at 50 µM in data set [9] worked out at 91%.
For `CC(C)/N=c1\cc2n(-c3ccc(Cl)cc3)c3ccccc3nc-2cc1Nc1ccc(Cl)cc1` [CLOFAZIMINE], in [6], the inhibition at 2 µM stood at 94%. For the same molecule, in data set [10], the inhibition at 0.2 µM was determined as 70%.
Consider `CN(C)c1ncnc(SC(=S)N2CCCC2)c1[N+](=O)[O-]`, for which the minimum inhibitory concentration (MIC) was 1.56 µg/mL (≈ 4.98 µM) in data set [15], 1.56 µg/mL (≈ 4.98 µM) in data set [16], 3.12 µg/mL (≈ 9.96 µM) in [17] and 3.12 µg/mL (≈ 9.96 µM) in data set [20]. Further, the Activity turned out to be 4.43 ×10⁷ No_unit in data set [18] and 2.14 ×10⁷ No_unit in [19].
For `CC(=O)Nc1ccc(S(=O)(=O)c2ccc(NC(C)=O)cc2)cc1` [ACEDAPSONE], the values for the Survival in [21] and in [23] were over 8 weeks and 12 weeks, respectively. In data set [22], the half-life is over 200 days. In data set [24], this molecule showed a Drug uptake of 0.2 µg/mL. In addition, the Activity in data set [25] was 0 g/dL. For the same molecule, the dose excreted at 720 h in data set [26] worked out at 7%.
On to `CCn1cc(C(=O)N/N=C\c2c(Cl)cccc2Cl)c(=O)c2cc(F)c(N3CCN(C)CC3)cc21`, for which, in data set [27], the MIC was determined as 27 µM (≈ 13.6 µg/mL). In data set [28], this molecule yielded an Activity of over 30%.
In the case of `Nc1ccc(S(=O)(=O)c2ccc(O)cc2)cc1`, the MIC came to 2010 µg/mL (≈ 8050 µM) in data set [29] and 12 µg/mL (≈ 48.1 µM) in [31]. Also, the Time in [30] is under 10 days.
Regarding `CC(=O)Nc1ccc(S(=O)(=O)c2ccc(NC(C)=O)c(C)c2)cc1`, the Survival in data set [21] is on record as over 8 weeks; in data set [23] it was 9 weeks. For the same molecule, the half-life in [22] was 35 days. The Drug uptake in [24] came out at 0.7 µg/mL. Moreover, the Activity in [25] was 1 g/dL. The dose excreted at 720 h in [26] was determined as 31%.
As to `COc1ncnc(SC(=S)N2CCCC2)c1[N+](=O)[O-]`, the minimum inhibitory concentration (MIC) worked out at 0.8 µg/mL (≈ 2.66 µM) in data set [15], 1.56 µg/mL (≈ 5.19 µM) in [16], 3.12 µg/mL (≈ 10.4 µM) in [17] and 1.56 µg/mL (≈ 5.19 µM) in data set [20]. Besides, the Activity in data set [18] is 0.07 ×10⁷ No_unit; in [19] it was 0.029 ×10⁷ No_unit.

Values taken from ChEMBL document CHEMBL4613212, “Insights of synthetic analogues of anti-leprosy agents” (Bioorg Med Chem, 2019).
